Measurements: patent publication EP0043811A1, “Indolo-naphthyridines and their use as medicaments” (OMNICHEM Société anonyme, priority 1980, dated 1982)

Assays:
[1] = Acute toxicity (LD50) in mice, intravenous; settings: mouse, in vivo, read-out: DL50 iv
Description: Les composés de l'invention ont été administrés sous forme de chlorhydrate par voie intraveineuse à des souris de souche Charles River. Les doses létales 50 % (DL50) ont été déterminées graphiquement selon la méthode de Lichtfield et Wilcoxon (J. Pharmacol.Exp. Thérap. […]).

[2] = system: souris, de souche Charles River; experiment: Hypobaric anoxia test in mice (survival time); format: in vivo; settings: ratio of DL50/DE50 of the product to DL50/DE50 of vincamine; DE50 = dose raising mean survival time by 50 %; p.o. 30 min before test; 190 mm Hg (5,25 % oxygen)
Method: Des souris de même sexe, de souche Charles River, pesant environ 20 + 2 g sont réparties en trois lots de 10 animaux. Les lots 1 et 2 comportent les animaux traités, c'est à dire ayant reçu la substance à tester de l'invention. Un troisième lot comporte des animaux témoins.
Les composés étudiés sont administrés p.o. 30 minutes avant l'essai. Les animaux sont placés dans une atmosphère appauvrie en oxygène par réalisation d'un vide partiel (190 mm Hg, correspondant à 5,25 % d'oxygène), ces conditions étant obtenues en 30 secondes). On mesure le temps de survie des souris au moyen d'un chronomètre. Les agents capables de favoriser l'oxygénation tissulaire et en particulier cérébrale, entraînent un accroissement du temps de survie et l'on peut exprimer par la dose efficace 50 % (DE50), la dose qui augmente de 50 % le temps de survie moyen des animaux placés dans les conditions décrites ci-dessus.
L'indice vincaminique correspond au rapport de la ^DL50/D^E50 du produit à la DL5ODE50 de la vincamine. Le tableau suivant rassemble les doses léthales et les indices vincaminiques observés pour divers composés de la présente invention.

[3] = system: chien anesthésié au Nembutal; experiment: Haemodynamics and cerebral oxygen consumption in the dog anaesthetised with Nembutal; format: in vivo
Description: Chez le chien anesthésié au Nembutal, les composés de l'invention, en particulier Ib', augmentent les débits sanguins artériels des artères fémorales et vertébrales et stimulent de façon marquée (+ 50 %) la consommation apparente du cerveau en oxygène. L'effet sur la fréquence cardiaque est par ailleurs peu marqué, contrairement au cas de la vincamine.

monoamine oxydase = experiment: Monoamine oxidase inhibitor (IMAO) character, method not described
[4] = system: ptose palpébrale induite par la réserpine; experiment: Reserpine-induced palpebral ptosis test in mice; format: in vivo, souris; settings: mouse
Description: Le canthène Ib s'est en outre révélé très actif au test à la ptose palpébrale induite par la réserpine che la souris. […] La combinaison des propriétés antianoxiques et antidépressives confèrent aux composés de l'invention un intérêt thérapeutique original.

| SMILES | LD50 [1] [mg/kg] | ind.vincam. hypobare [2] | débits sanguins artériels des artères fémorales et vertébrales [3] | effet sur la fréquence cardiaque ([3]; stated in contrast to vincamine) | caractéristique d'inhibiteur de monoamine oxydase (IMAO) (monoamine oxydase) | test à la ptose palpébrale induite par la réserpine [4] |
| --- | --- | --- | --- | --- | --- | --- |
| CCN1CCc2c3n(c4ccccc24)C(O)CCC31 (stereo not shown) [Exemple 2, Hydroxy-6 éthyl-3 1,2,3,3a,4,5 hexahydro 6H indolo (3, 2,1, -de) 1,5 naphtyridine] | 21 | 2 | – | – | – | – |
| CCN1CCc2c3n(c4ccccc24)C=CCC31 (stereo not shown) [Exemple 3, Ethyl-3 tétrahydro-1,2,3,3a 4H indolo (3,2,1-de) 1,5 naphtyridine] | 46 | 2 (Ib') | augmentent | peu marqué | aucune caractéristique d'inhibiteur de monoamine oxydase | très actif |
| CCN1CCc2c3n(c4ccccc24)CCCC31 (stereo not shown) [Exemple 4, Ethyl-3 hexahydro-1,2,3,3a,4,5-6H indolo (3,2,1-de) 1,5 naphtyridine] | 14 | 2 | – | – | – | – |
